Source: paper PMC8379256, “A xanthene derivative, DS20060511, attenuates glucose intolerance by inducing skeletal muscle-specific GLUT4 translocation in mice” (Communications Biology, 2021)
Values joined by “and” are separate entries in the source; they are usually repeats but may differ in a detail not shown here. Equal values may be shown once.

Key:
L6-GLUT4myc myotubes = experiment: Fluorescence immunostaining of cell surface GLUT4 and actin fibers in L6-GLUT4myc myotubes; format: cell-based, rat; conditions: 30 μM DS20060511 or 100 nM insulin; Fig. 4c
Protocol: (§1) Arrowheads indicate the characteristic ruffled structure of the polymerized actin and actin-associated surface GLUT4. d GLUT4 translocation activity of 30 μM DS20060511 or 100 nM insulin in the presence of the actin polymerization inhibitor, Latrunculin B, at the indicated concentrations. Values shown are means ± SEM, n = 3. **P < 0.01 vs. 0 nM Latrunculin B by one-way ANOVA followed by Dunnett’s test. e Concentration-dependent insulin-stimulated GLUT4 translocation in L6-GLUT4myc myotubes with or without 30 μM DS20060511 (n = 3). f Concentration-dependent DS20060511-stimulated 2-DG uptake with 100 nM insulin in isolated muscles from C57BL/6 mice (n = 3). Values shown are means ± SEM. ***P < 0.001 by one-way ANOVA followed by Tukey’s test. g Blood glucose levels during ITT in STZ-treated C57BL/6 mice (n = 6–7). Vehicle or indicated dose of DS20060511 was given orally at the same time as 0.1 U kg^−1 insulin injection intraperitoneally. Values shown are means ± SEM. *P < 0.05 vs. vehicle by one-way ANOVA followed by Dunnett’s test. c Scale bar in all panels, 5 μm. Uncropped blots for a and b can be found in Supplementary Fig. 6.
Differentiated L6-GLUT4myc myotubes were prepared in a collagen-coated four-well chamber slide. After serum starvation for 3 h, the cells were stimulated with insulin or DS20060511 for 15 min at 37 °C. Cells were rinsed with cold PBS(+), fixed with 4% paraformaldehyde for 30 min on ice and blocked with 1% BSA and 10% normal goat serum in PBS(+) for 30 min at room temperature. Surface GLUT4myc staining was carried out without cell membrane permeabilization. Cells were incubated with anti-c-Myc antibody for 30 min at room temperature, followed by treatment with 0.1% Triton-X. After blocking, the cells were incubated with Alexa 488-conjugated secondary antibody and Alexa 594-conjugated phalloidin for 30 min at room temperature. Fluorescence images were obtained with a Leica TSC-SP8 confocal microscope. Specimens were scanned along the z-axis and a single-composite image was generated by the maximal projection method using the LAS software (Leica Microsystems, Wetzlar, Germany).

[1] = test system: IRβ, IRS1, Akt (Ser473), AS160; experiment: Phosphorylation of IRβ, IRS1, Akt and AS160 in triceps surae muscle (immunoblot); format: in vivo, mouse; conditions: skeletal muscle, DS20060511 10 mg kg−1 or insulin 5 U kg−1; for phosphorylation of IRβ-subunit and IRS1: Fig. 4a; for phosphorylation of Akt and AS160: Fig. 4b
Protocol: The tissue sample was homogenized with a Polytron homogenizer and lysed in a lysis buffer (25 mM Tris-HCl, pH 7.4, 100 mM NaF, 50 mM Na4P2O7, 10 mM EGTA, 10 mM EDTA, 10 mM Na3VO4, 1 mM PMSF, and 1% NP-40) on ice, and the lysate was centrifuged at 17,860 × g for 10 min at 4 °C. The supernatant was collected and the protein concentrations were determined by BCA assay (Thermo Fisher Scientific). Immunoprecipitation of IRβ and IRS1 was performed as described previously, using specific antibodies against IRβ (sc-711, Santa Cruz Biotechnology, Dallas, TX), IRS1 (06-248, Merck Millipore, Burlington, MA), and for detection of phosphotyrosine (05-321, Merck Millipore). Five milligrams of the extracts were incubated with specific antibodies against IRS1 for 1 h at 4 °C. Then, protein G-Sepharose was added, followed by incubation for 2 h at 4 °C. After washing three times, the immunocomplexes were subjected to immunoblotting.
Phosphorylated or total protein of IRβ and IRS1 was resolved on 7% SDS-PAGE and analyzed using specific antibodies against IRβ, IRS1, and phosphotyrosine. Analyses were also conducted for phosphorylated Akt (1:2000), Akt (1:2,000), AS160 (1:1,000), phospho-AS160 (1:1,000), AMPKα (1:1,000), phospho-AMPKα (1:1,000), GLUT4 (1:200), Na,K-ATPaseα (1:1,000), GAPDH (1:1,000) by immunoblotting with specific antibodies after the tissue lysates were resolved on SDS-PAGE and transferred to a PVDF membrane using Trans-Blot Turbo transfer system (Bio-Rad Laboratories, Hercules, CA). Bound antibodies were detected with HRP-conjugated secondary antibodies using ECL detection reagents (GE Healthcare, Chicago, IL).

[2] = test system: isolated skeletal muscles; experiment: 2-DG uptake with 100 nM insulin in isolated muscles from C57BL/6 mice; set-up: species or system mouse; conditions: for 2DOG Trn / IC 2DOG / Raio (2-DG uptake relative to untreated control): isolated muscles, individual muscles #1-3; for 2DOG Trn / IC 2DOG: 2DG 1 mM, incubation 10 min
Protocol: as §1
The soleus or EDL muscle was removed from anesthetized mice (isoflurane anesthesia) that had been denied access to food overnight, and incubated with oxygenated (95% O2/5% CO2) Krebs-Henseleit Bicarbonate (KHB) buffer (118.1 mM NaCl, 4.7 mM KCl, 1.1 mM KH2PO4, 1.2 mM MgSO4, 2.5 mM CaCl2, and 25 mM NaHCO3, pH7.4) in the presence of 11.1 mM glucose at 37 °C. The muscle specimens were then treated with the indicated concentrations of the compounds in KHB buffer containing 11.1 mM glucose and 8 mM mannitol for 10 min at 37 °C. Thereafter, the muscles were rinsed with KHB buffer containing 8 mM mannitol and the compounds for 5 min at 37 °C. Lastly, the muscles were treated with the compounds in KHB buffer containing 1 mM 2-DG (with 0.3 μCi mL^−1 [^3H]-2-DG) and 8 mM mannitol (with 0.03 μCi mL^−1 [^14C]-mannitol) for 10 min at 37 °C. After the muscle specimens were washed, they were lysed with 1 N NaOH and neutralized with 1 N HCl. The ^14C- and ^3H-specific activities were counted with a liquid scintillation counter. The specific uptake of 2-DG was calculated by subtracting the nonspecific uptake of mannitol from the total 2-DG uptake. To investigate the effects of muscle contraction, muscle contraction was induced by electrical stimulation with 5 Hz (1 ms pulse duration, 100 V) for 10 min (SEN-5201, Nihon Koden, Tokyo, Japan).

[3] = DS20060511 1 μM + insulin 100 nM
[4] = DS20060511 10 μM + insulin 100 nM
[5] = insulin 100 nM alone (DS20060511 0 μM)

Compound | actin polymerization (L6-GLUT4myc myotubes) | staining of GLUT4 at the cell surface (L6-GLUT4myc myotubes) | phosphorylation of IRβ-subunit and IRS1 [1] | phosphorylation of Akt and AS160 [1] | 2-DG uptake induced by insulin, concomitant DS20060511 ([2]; 100 nM insulin, isolated skeletal muscles, Fig. 4f) | 2DOG Trn [2, 3] | IC 2DOG [2, 3] | Raio (2-DG uptake relative to untreated control) [2, 3] | 2DOG Trn [2, 4] | IC 2DOG [2, 4] | 2DOG Trn [2, 5] | IC 2DOG [2, 5] | Raio (2-DG uptake relative to untreated control) [2, 5]
COc1ccc2c(C)c(C(=O)O)ccc2c1C1C2=C(CC(C)(C)CC2=O)OC2=C1C(=O)CC(C)(C)C2 [DS20060511] | observed only following insulin treatment | strong staining of GLUT4 at the cell surface | no such phosphorylation of these proteins was observed | no such effect | additively increased | 935 nmol/ml and 93.5 µM/min and 1062 nmol/ml and 106.2 µM/min and 1054 nmol/ml and 105.4 µM/min | 559 nmol/g and 682 nmol/g and 640 nmol/g | 2.70 and 3.07 and 3.04 | 1281 nmol/ml and 128.1 µM/min and 1209 nmol/ml and 120.9 µM/min and 1137 nmol/ml and 113.7 µM/min | 656 nmol/g and 556 nmol/g and 565 nmol/g | – | – | –
Insulin: Insulin (Humulin, Eli Lilly) in the in vivo experiments; Insulin solution human (I9278, Sigma–Aldrich) in the in vitro experiments | observed only following insulin treatment | strong staining of GLUT4 at the cell surface | phosphorylated | induced phosphorylation of Akt and AS160 | – | – | – | – | – | – | 573 nmol/ml and 57.3 µM/min and 622 nmol/ml and 62.2 µM/min and 629 nmol/ml and 62.9 µM/min | 376 nmol/g and 331 nmol/g and 410 nmol/g | 1.65 and 1.79 and 1.82
